# Active and inactive are the calls of the source. The rule behind the calls is not given here.
# Columns and labels:
# Mus musculus [1] = assay: Immunopotentiating activity in sheep RBC-immunized BALB/c mouse assessed as CD4-positive T-cell content in spleen at 0.001 mg/kg, po for 14 days by flow cytometry (reference value: 2.7 +/- 0.12 10^7No_unit); type: functional
# Mus musculus [2] = assay: Immunopotentiating activity in sheep RBC-immunized BALB/c mouse assessed as increase in isolated splenic T-cell proliferation administered orally for 14 days followed by incubation of isolated splenocytes with ConA for 72 hrs by MTT assay; type: functional
# Mus musculus [3] = assay: Immunopotentiating activity in sheep RBC-immunized BALB/c mouse assessed as B-cell activation by measuring IgG antibody titer in serum at 0.1 mg/kg, po for 14 days by hemagglutinination technique; type: functional, organism-based
# Mus musculus [4] = assay: Immunopotentiating activity in sheep RBC-immunized BALB/c mouse assessed as B-cell activation by measuring IgG antibody titer in serum at 0.001 mg/kg, po for 14 days by hemagglutinination technique; type: functional, organism-based
# Mus musculus [5] = assay: Immunopotentiating activity in sheep RBC-immunized BALB/c mouse assessed as ratio of CD4-positive splenic T-cells to CD8-positive splenic T-cells at 0.001 mg/kg, po for 14 days by flow cytometry (RVB = 1.56 +/- 0.09); type: functional
# Mus musculus [6] = assay: Immunopotentiating activity in sheep RBC-immunized BALB/c mouse assessed as increase in delayed-type hypersensitivity response by measuring left hind foot pad thickness at 0.001 mg/kg, po qd administered 2 hrs post immunization for 7 days measured 24 to 48 hrs post SRBC challenge by spheromicrometer method; type: functional, organism-based
# Mus musculus [7] = assay: Immunopotentiating activity in sheep RBC-immunized BALB/c mouse assessed as increase in isolated splenic B-cell proliferation administered orally for 14 days followed by incubation of isolated splenocytes with LPS for 72 hrs by MTT assay; type: functional
# Mus musculus [8] = assay: Immunopotentiating activity in sheep RBC-immunized BALB/c mouse assessed as ratio of CD4-positive splenic T-cells to CD8-positive splenic T-cells at 0.01 mg/kg, po for 14 days by flow cytometry (RVB = 1.56 +/- 0.09); type: functional
# Mus musculus [9] = assay: Immunopotentiating activity in sheep RBC-immunized BALB/c mouse assessed as CD4-positive splenic T-cells at 0.001 mg/kg, po for 14 days by flow cytometry (reference value: 20.7 +/- 0.9%); type: functional
# Mus musculus [10] = assay: Immunopotentiating activity in sheep RBC-immunized BALB/c mouse assessed as B-cell activation by measuring IgG antibody titer in serum at 0.01 mg/kg, po for 14 days by hemagglutinination technique; type: functional, organism-based
# Mus musculus [11] = assay: Immunopotentiating activity in sheep RBC-immunized BALB/c mouse assessed as increase in macrophage production by measuring increase in NO production administered orally for 14 days followed by incubation with LPS for 48 hrs by Griess assay; type: functional
# Mus musculus [12] = assay: Immunopotentiating activity in sheep RBC-immunized BALB/c mouse assessed as B-cell activation by measuring IgM antibody titer in serum at 0.01 mg/kg, po for 14 days measured on day 7 post dose by hemagglutinination technique; type: functional, organism-based
# Mus musculus [13] = assay: Immunopotentiating activity in sheep RBC-immunized BALB/c mouse assessed as B-cell activation by measuring IgM antibody titer in serum at 0.001 mg/kg, po for 14 days measured on day 7 post dose by hemagglutinination technique; type: functional, organism-based
# Mus musculus [14] = assay: Immunopotentiating activity in sheep RBC-immunized BALB/c mouse assessed as increase in isolated splenic […] proliferation administered orally for 14 days followed by incubation of isolated splenocytes with ConA for 72 hrs by MTT assay; type: functional
# Mus musculus [15] = assay: Immunopotentiating activity in sheep RBC-immunized BALB/c mouse assessed as CD8-positive T-cell content in spleen at 0.001 mg/kg, po for 14 days by flow cytometry (reference value: 1.47 +/- 0.04 10^7No_unit); type: functional
# Mus musculus [16] = assay: Immunopotentiating activity in sheep RBC-immunized BALB/c mouse assessed as CD8-positive T-cell content in spleen at 0.01 mg/kg, po for 14 days by flow cytometry (reference value: 1.47 +/- 0.04 10^7No_unit); type: functional
# Mus musculus [17] = assay: Immunopotentiating activity in sheep RBC-immunized BALB/c mouse assessed as increase in isolated splenic T-cell proliferation administered orally for 14 days followed by incubation of isolated splenocytes with LPS for 72 hrs by MTT assay; type: functional
# Mus musculus [18] = assay: Immunopotentiating activity in sheep RBC-immunized BALB/c mouse assessed as increase in IL2 production in splenocytes administered orally for 14 days followed by incubation with ConA for 48 hrs by ELISA; type: functional, cell-based
# Splenic lymphocyte [19] = assay: Immunopotentiating activity in splenic lymphocytes (unknown origin) assessed as effect on proliferation by measuring cell viability pretreated followed by incubation of lymphocytes with LPS for 48 hrs by MTT assay; type: functional, cell-based
# Mus musculus [20] = assay: Immunopotentiating activity in sheep RBC-immunized BALB/c mouse assessed as increase in IL4 production in splenocytes administered orally for 14 days followed by incubation with ConA for 48 hrs by ELISA; type: functional, cell-based
# Mus musculus [21] = assay: Immunopotentiating activity in sheep RBC-immunized BALB/c mouse assessed as CD4-positive splenic T-cells at 0.1 mg/kg, po for 14 days by flow cytometry (reference value: 20.7 +/- 0.9%); type: functional
# Mus musculus [22] = species: Mus musculus; assay: Cytotoxicity in BALB/c mouse splenocytes at 100 ug/ml measured after 72 hrs by MTT assay; type: toxicity; conditions: splenocyte
# Mus musculus [23] = assay: Immunopotentiating activity in sheep RBC-immunized BALB/c mouse assessed as CD8-positive splenic T-cells at 0.1 mg/kg, po for 14 days by flow cytometry (reference value: 13.3 +/- 0.34%); type: functional
# Splenic lymphocyte [24] = assay: Immunopotentiating activity in splenic lymphocytes (unknown origin) assessed as effect on proliferation by measuring cell viability pretreated followed by incubation of lymphocytes with ConA for 48 hrs by MTT assay; type: functional, cell-based
# Mus musculus [25] = assay: Immunopotentiating activity in sheep RBC-immunized BALB/c mouse assessed as CD4-positive T-cell content in spleen at 0.01 mg/kg, po for 14 days by flow cytometry (reference value: 2.7 +/- 0.12 10^7No_unit); type: functional
# Mus musculus [26] = assay: Immunopotentiating activity in sheep RBC-immunized BALB/c mouse assessed as CD8-positive splenic T-cells at 0.01 mg/kg, po for 14 days by flow cytometry (reference value: 13.3 +/- 0.34%); type: functional
# Mus musculus [27] = assay: Immunopotentiating activity in sheep RBC-immunized BALB/c mouse assessed as CD4-positive splenic T-cells at 0.01 mg/kg, po for 14 days by flow cytometry (reference value: 20.7 +/- 0.9%); type: functional
# Mus musculus [28] = assay: Immunopotentiating activity in sheep RBC-immunized BALB/c mouse assessed as CD8-positive splenic T-cells at 0.001 mg/kg, po for 14 days by flow cytometry (reference value: 13.3 +/- 0.34%); type: functional
# Mus musculus [29] = assay: Immunopotentiating activity in sheep RBC-immunized BALB/c mouse assessed as B-cell activation by measuring IgM antibody titer in serum at 0.1 mg/kg, po for 14 days measured on day 7 post dose by hemagglutinination technique; type: functional, organism-based
# Mus musculus [30] = assay: Immunopotentiating activity in sheep RBC-immunized BALB/c mouse assessed as ratio of CD4-positive splenic T-cells to CD8-positive splenic T-cells at 0.1 mg/kg, po for 14 days by flow cytometry (RVB = 1.56 +/- 0.09); type: functional
# Mus musculus [31] = assay: Immunopotentiating activity in sheep RBC-immunized BALB/c mouse assessed as increase in interferon-gamma production in splenocytes administered orally for 14 days followed by incubation with ConA for 48 hrs by ELISA; type: functional, cell-based
# Mus musculus [32] = assay: Immunopotentiating activity in sheep RBC-immunized BALB/c mouse assessed as CD4-positive T-cell content in spleen at 0.1 mg/kg, po for 14 days by flow cytometry (reference value: 2.7 +/- 0.12 10^7No_unit); type: functional
# Mus musculus [33] = assay: Immunopotentiating activity in sheep RBC-immunized BALB/c mouse assessed as CD8-positive T-cell content in spleen at 0.1 mg/kg, po for 14 days by flow cytometry (reference value: 1.47 +/- 0.04 10^7No_unit); type: functional
compound,measurement,setting,value
COc1ccc(C2=NOC(COc3ccc4ccc(=O)oc4c3)C2)c(OC)c1 (stereo not drawn),Activity,Mus musculus [1],1.16 ×10⁷ No_unit
same,Activity,Mus musculus [2],Dose-dependent effect
same,Activity,Mus musculus [3],Active
same,Activity,Mus musculus [4],Active
same,Ratio,Mus musculus [5],1.32
same,Activity,Mus musculus [6],Active
same,Activity,Mus musculus [7],Dose-dependent effect
same,Ratio,Mus musculus [8],1.67
same,Activity,Mus musculus [9],20.3%
same,Activity,Mus musculus [10],Active
same,Activity,Mus musculus [11],Dose-dependent effect
same,Activity,Mus musculus [12],Active
same,Activity,Mus musculus [13],Active
same,Activity,Mus musculus [14],Dose-dependent effect
same,Activity,Mus musculus [15],1.19 ×10⁷ No_unit
same,Activity,Mus musculus [16],1.29 ×10⁷ No_unit
same,Activity,Mus musculus [17],Dose-dependent effect
same,Activity,Mus musculus [18],Dose-dependent effect
same,Activity,Splenic lymphocyte [19],Dose-dependent effect
same,Activity,Mus musculus [20],Dose-dependent effect
same,Activity,Mus musculus [21],35.3%
same,Activity,Mus musculus [22],Non-Toxic
same,Activity,Mus musculus [23],19.9%
same,Activity,Splenic lymphocyte [24],Dose-dependent effect
same,Activity,Mus musculus [25],1.54 ×10⁷ No_unit
same,Activity,Mus musculus [26],16.2%
same,Activity,Mus musculus [27],27.2%
same,Activity,Mus musculus [28],15.4%
same,Activity,Mus musculus [29],Active
same,Ratio,Mus musculus [30],1.77
same,Activity,Mus musculus [31],Dose-dependent effect
same,Activity,Mus musculus [32],1.67 ×10⁷ No_unit
same,Activity,Mus musculus [33],1.41 ×10⁷ No_unit
